No end group written: not given here.
Assays:
APC [1] = target: T1, APC (Homo sapiens, UniProt P04070); experiment: Xa-1-stage coagulation assay of APC anticoagulant activity; assay type: biochemical
T1 construct: begins at amino acid residue position 158 and ends at 419; The light chain is 155 amino acid residues in length; tissue Factor IX concentrate from Immuno AG, Vienna; thrombin from Enzyme Research Laboratories
Protocol: For testing the inhibition of the synthetic peptides on APC activity described above, Xa-1-stage coagulation assays were also performed as described. See Seegers et al., Thrombosis Res., 13:233-243 (1978); Marlar et al., supra; and Walker et al., J. Biol. Chem. 265:1484-1489 (1990). […] The resulting admixtures were maintained for seven minutes at 37° C. Separate aliquots of peptides maintained under the same conditions in the absence of APC served as controls for the inhibitory effect of synthetic peptides on APC anticoagulant activity. After the maintenance period, 100 μl of NHP and 100 μl of 200 μg/ml of rabbit brain cephalin (Sigma) were admixed into each peptide admixture and maintained for 200 seconds at 37° C. to form pre-coagulation admixtures. In some experiments, Factor VIII deficient plasma (George King Bio-Medical, Inc.) was used in the place of NHP to determine the effect of Factor VIII on the assay system. Coagulation was then initiated by the admixture of 100 μl of 0.62 nM human activated Factor X (Xa) (Enzyme Research Laboratories, Southbend, Ind.) in TBS-BSA containing 30 mM CaCl2 prewarmed to 37° C. to each of the pre-coagulation admixtures.
The time for clot formation was measured by an Electra 700 Automatic Coagulation Timer (Medical Laboratory Automation, Inc., Mount Vernon, N.Y.). Each peptide's effect was determined in duplicate. The results of the inhibition of APC anticoagulant activity by synthetic peptides as measured in Xa-1-stage coagulation assays are described above and are presented as the mean values obtained with […].
Additional assays were performed to compare the specificity of the inhibitory effect of peptide-(390-404) on APC anticoagulant activity. Both APTT and Xa-1-stage assays were performed with peptide-(390-404) and with the same peptide synthesized in the reverse order, peptide-(404-390), at concentrations of the peptides ranging from 0 μM to 40 μM. In APTT assays performed as described above in the presence of NHP, APC was used at a concentration of 2.5 nM. […]

APC [2] = target: T1, APC; experiment: Amidolytic activity of APC towards chromogenic substrate S-2366; assay type: biochemical; conditions: for effect on APC amidolytic activity towards S-2366: all concentrations up to 500 μM
Protocol: The effects of PC-derived inhibitory synthetic peptides on the amidolytic activity of APC were evaluated to determine if the peptides inhibited APC anticoagulant activity by blocking a region in or close to the active site of the enzyme involved in cleavage of a small substrate such as S-2366 (Kabi-Vitrum) or involved in the site of interaction with the recombinant mutant (Arg^358)α1 -antitrypsin (α1 -AT) (Transgene, Strasbourg, France), the latter of which is described in Example 5a4) below. The assay was performed as described by Marlar et al., supra; and Suzuki et al., supra.
The amidolytic activity of APC toward the peptide substrate S-2366 was measured in the presence of various PC synthetic peptides prepared in Example 1. For the assay, 100 μl of 15 nM APC, prepared in Example 2c2), was admixed with separate aliquots of peptide-(390-404) ranging in concentration from 0.0 to 750 μM prepared in TBS-BSA at pH 7.4 containing 0.02% NaN3 and 2 mM CaCl2 to form APC-peptide admixtures, respectively. After maintenance of the admixtures for 30 minutes at 37° C., 50 μl of 2.4 mM S-2366 in the same buffer was admixed to initiate the amidolytic reaction. The hydrolysis of the substrate was monitored by the change in absorbance at 405 nm at 37° C. over time using an EL312 Microplate Bio-Kinetics Reader (BIO-TEK Instruments, Inc. Vt.).
The amidolytic activity of APC toward the peptide substrate S-2366 was measured in the presence of anti-(390-404) antibody. For the assay, 100 μl of 15 nM APC, prepared in Example 2c2), were admixed with separate aliquots of anti-(390-404) antibody ranging in concentration from 0.0 to 500 nM prepared in TBS-BSA at pH 7.4 containing 0.02% NaN3 and 2 mM CaCl2 to form APC-anti-(390-404) antibody immunoreaction admixtures, respectively. After maintenance of the admixtures for 30 minutes at 37° C. to allow formation of immunoreaction products, 50 μl of 2.4 mM S-2366 in the same buffer was admixed to initiate the amidolytic reaction. The hydrolysis of the substrate was monitored by the change in absorbance at 405 nm over time using an EL312 Microplate Bio-Kinetics Reader (BIO-TEK Instruments, Inc. Vt.).

T1 sequence (P04070 212-461): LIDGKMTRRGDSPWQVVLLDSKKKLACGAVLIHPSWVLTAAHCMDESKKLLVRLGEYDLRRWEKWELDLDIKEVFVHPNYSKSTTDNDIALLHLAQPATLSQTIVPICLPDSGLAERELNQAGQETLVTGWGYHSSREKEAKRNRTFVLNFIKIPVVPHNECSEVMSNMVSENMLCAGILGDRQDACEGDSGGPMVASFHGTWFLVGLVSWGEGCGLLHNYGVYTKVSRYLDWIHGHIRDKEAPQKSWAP
T1 sequence (P04070 43-197): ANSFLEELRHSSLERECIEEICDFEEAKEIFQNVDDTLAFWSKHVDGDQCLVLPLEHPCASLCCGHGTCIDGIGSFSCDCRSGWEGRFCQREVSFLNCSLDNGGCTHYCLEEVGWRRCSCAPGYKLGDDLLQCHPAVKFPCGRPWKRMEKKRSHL

KRNRTFVLNFIKIPV-NH2 [peptide-(311-325), KRNRTFVLNFIKIPV]
effect on APC in Xa1-stage assay (APC [1]; up to 100 μM): no effect
APC amidolytic activity towards S-2366, A405 /5 min (APC [2]; APC + 250 μM peptide): 0.342 A405 /5 min
effect on APC amidolytic activity towards S-2366 (APC [2]): did not significantly alter

SGLLHNYGVYTKVSR-NH2 [peptide-(384-398), -SGLLHNYGVYTKVSR]
APC amidolytic activity towards S-2366, A405 /5 min (APC [2]; APC + 500 μM peptide): 0.378 A405 /5 min
effect on APC amidolytic activity towards S-2366 (APC [2]): did not significantly alter

YGVYTKVSRYLDWIH-NH2 [peptide-(390-404), YGVYTKVSRYLDWIH]
IC50 (APC [1]): 5 µM
IC90 (APC [1]): 40 µM

From US5279956A, “Activated protein C polypeptides and anti-peptide antibodies, diagnostic methods and systems for inhibiting activated protein C” (The Scripps Research Institute, priority 1991, dated 1994)
